Laboratory results published in the NIST ThermoML archive (doi:10.1021/je030136n).

Assay: xn = mol fraction of the nth substance listed
Settings: Liquid, Pulse-echo method

CCCCCCC [heptane] + CCCO
Settings	speed of sound [m/s]
298.17 K, 30400 kPa, x2 = 0.3008	1319.3
298.17 K, 45590 kPa, x2 = 0.3008	1394.1
298.17 K, 60790 kPa, x2 = 0.3008	1461.5
298.17 K, 60790 kPa, x2 = 0.7986	1471.8
298.17 K, 75990 kPa, x2 = 0.1008	1526.8
298.17 K, 75990 kPa, x2 = 0.3008	1523.2
298.17 K, 75990 kPa, x2 = 0.7986	1529.5
298.17 K, 91190 kPa, x2 = 0.1008	1584.5
298.17 K, 91190 kPa, x2 = 0.7016	1580.7
298.17 K, 111450 kPa, x2 = 0.7016	1647.6
298.18 K, 100 kPa, x2 = 0.3008	1128.6
298.18 K, 100 kPa, x2 = 0.6027	1144.3
298.18 K, 45590 kPa, x2 = 0	1400.1
298.18 K, 60790 kPa, x2 = 0.1008	1464.2
298.18 K, 60790 kPa, x2 = 0.7016	1467.2
298.18 K, 75990 kPa, x2 = 0.7016	1526
298.18 K, 101320 kPa, x2 = 0.7016	1614.9
298.18 K, 111450 kPa, x2 = 0.1008	1655.1
298.18 K, 121580 kPa, x2 = 0.7016	1678.9
298.19 K, 30400 kPa, x2 = 0.6027	1326.4
298.19 K, 45590 kPa, x2 = 0.6027	1398.6
298.19 K, 45590 kPa, x2 = 0.7016	1403
298.19 K, 60790 kPa, x2 = 0	1468.7
298.19 K, 91190 kPa, x2 = 0.3008	1580.1
298.19 K, 91190 kPa, x2 = 0.6027	1579
298.2 K, 100 kPa, x2 = 0.7016	1154
298.2 K, 30400 kPa, x2 = 0.7016	1332.1
298.2 K, 121580 kPa, x2 = 0.7986	1679.9
298.22 K, 75990 kPa, x2 = 0.6027	1523.5
298.23 K, 60790 kPa, x2 = 0.6027	1463.6
298.25 K, 101320 kPa, x2 = 0.7986	1616.7
298.26 K, 91190 kPa, x2 = 0.7986	1583
303.06 K, 100 kPa, x2 = 0	1108.9
303.07 K, 45590 kPa, x2 = 0	1384.4
303.08 K, 60790 kPa, x2 = 0.6027	1449.5
303.08 K, 101320 kPa, x2 = 0.6027	1601.2
303.09 K, 101320 kPa, x2 = 0.7986	1604.9
303.1 K, 75990 kPa, x2 = 0.7986	1516.7
303.1 K, 91190 kPa, x2 = 0.7986	1570.9
303.1 K, 101320 kPa, x2 = 0	1612.6
303.1 K, 111450 kPa, x2 = 0.6027	1634.7
303.1 K, 121580 kPa, x2 = 0	1681.2
303.11 K, 111450 kPa, x2 = 0.4992	1635.3
303.11 K, 121580 kPa, x2 = 0.4992	1667.7
303.11 K, 121580 kPa, x2 = 0.7986	1668.6
303.12 K, 100 kPa, x2 = 0.7986	1147.6
303.12 K, 30400 kPa, x2 = 0.7986	1324.1
303.12 K, 45590 kPa, x2 = 0.7016	1388.2
303.12 K, 45590 kPa, x2 = 0.7986	1394.5
303.12 K, 101320 kPa, x2 = 0.4992	1601.3
303.12 K, 111450 kPa, x2 = 0.7986	1637.5
303.12 K, 121580 kPa, x2 = 0.7016	1667.3
303.13 K, 30400 kPa, x2 = 0	1307
303.13 K, 30400 kPa, x2 = 0.7016	1316.2
303.13 K, 60790 kPa, x2 = 0.7986	1458.1
303.13 K, 75990 kPa, x2 = 0.7016	1512.7
303.13 K, 91190 kPa, x2 = 0.4992	1565.8
303.13 K, 91190 kPa, x2 = 0.7016	1567.8
303.13 K, 101320 kPa, x2 = 0.7016	1602.5
303.13 K, 111450 kPa, x2 = 0.7016	1635.6
303.14 K, 100 kPa, x2 = 0.7016	1134.5
303.14 K, 30400 kPa, x2 = 0.4992	1306.5
303.14 K, 30400 kPa, x2 = 0.6027	1310
303.14 K, 60790 kPa, x2 = 0.7016	1453.1
303.14 K, 75990 kPa, x2 = 0.4992	1509.2
303.14 K, 91190 kPa, x2 = 0.6027	1565.9
303.15 K, 100 kPa, x2 = 0.6027	1124
303.15 K, 45590 kPa, x2 = 0.6027	1383.2
303.15 K, 60790 kPa, x2 = 0.4992	1448
303.15 K, 75990 kPa, x2 = 0.6027	1509.9
303.15 K, 111450 kPa, x2 = 0	1647.6
303.16 K, 100 kPa, x2 = 0.4992	1116
303.16 K, 15200 kPa, x2 = 0.1008	1213.6
303.16 K, 45590 kPa, x2 = 0.4992	1380.9
303.16 K, 121580 kPa, x2 = 0.3008	1669.9
303.17 K, 15200 kPa, x2 = 0	1218.6
303.17 K, 75990 kPa, x2 = 0	1517.2
303.17 K, 101320 kPa, x2 = 0.1008	1607.1
303.17 K, 101320 kPa, x2 = 0.3008	1602.4
303.18 K, 60790 kPa, x2 = 0	1453.7
303.18 K, 91190 kPa, x2 = 0	1575.7
303.18 K, 111450 kPa, x2 = 0.1008	1642
303.18 K, 121580 kPa, x2 = 0.6027	1666.6
303.19 K, 121580 kPa, x2 = 0.1008	1675.4
303.2 K, 100 kPa, x2 = 0.3008	1107.1
303.2 K, 30400 kPa, x2 = 0.3008	1301.8
303.2 K, 60790 kPa, x2 = 0.1008	1448.8
303.21 K, 30400 kPa, x2 = 0.1008	1301.9
303.21 K, 45590 kPa, x2 = 0.1008	1379.3
303.21 K, 60790 kPa, x2 = 0.3008	1446
303.21 K, 75990 kPa, x2 = 0.1008	1512.1
303.21 K, 75990 kPa, x2 = 0.3008	1508.5
303.21 K, 91190 kPa, x2 = 0.1008	1570.5
303.21 K, 91190 kPa, x2 = 0.3008	1566.1
303.22 K, 100 kPa, x2 = 0.1008	1103.8
303.23 K, 45590 kPa, x2 = 0.3008	1377.7
303.25 K, 111450 kPa, x2 = 0.3008	1636.9
